Experimental findings from patent publication EP2140864A2 (H. Lundbeck A/S, priority 2001, dated 2002) are described below.

Marks after values point to notes of the source that are not given here.

One assay concerns the target T1, human GAL1 receptor (Homo sapiens, UniProt P47211).
T1 construct: expressed in transfected cells
T1 sequence (P47211 1-349): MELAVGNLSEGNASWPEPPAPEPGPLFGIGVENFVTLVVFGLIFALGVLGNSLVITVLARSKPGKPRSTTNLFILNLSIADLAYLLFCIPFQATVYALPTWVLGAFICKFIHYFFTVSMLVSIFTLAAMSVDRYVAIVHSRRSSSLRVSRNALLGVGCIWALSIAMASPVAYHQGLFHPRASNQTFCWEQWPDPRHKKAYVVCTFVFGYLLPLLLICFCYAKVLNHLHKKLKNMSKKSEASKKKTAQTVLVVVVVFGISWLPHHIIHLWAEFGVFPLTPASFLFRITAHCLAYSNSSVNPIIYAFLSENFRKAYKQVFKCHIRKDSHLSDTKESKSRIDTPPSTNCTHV
Description: Radioligand binding at cloned human GAL1 receptor. To be noted: indolones, read-out: Ki GalR1. The gist of the method: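 Membranes from CHO cells stably expressing human GAL2 and LM(tk-) cells stably expressing human GAL1, resuspended in binding buffer (10 mM NaCl, 20 mM HEPES, pH 7.4). Binding data fitted by nonlinear regression.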

For a further assay, the system named is Male Sprague-Dawley rats. Description: Rat Forced Swim Test (FST). Format: in vivo. The following applies: for Climbing / Diving / Immobility / Swimming: single administration, 1 hr. before test; for antidepressant profile in the FST (conclusion): overall conclusion of the study. As for the experimental part:
The procedure used in this study was similar to that previously described (Porsolt, et al., 1978), except the water depth (30 cm in this procedure). The greater depth in this test prevented the rats from supporting themselves by touching the bottom of the cylinder with their feet. Swim sessions were conducted by placing rats in individual plexiglass cylinders (46 cm tall x 20 cm in diameter) containing 23-25°C water 30 cm deep (Porsolt, et al. used a depth of only 15 cm; also, see Detke, et al., 1995). Two swim tests were conducted always between 1200 and 1800 hours: an initial 15-min pretest followed 24 h later by a 5-minute test. […] All other test sessions were conducted between 1300 to 1700 hours. Following all swim sessions, rats were removed from the cylinders, dried with paper towels and placed in a heated cage for 15 minutes and returned to their home cages. All test sessions were videotaped using a Panasonic color video camera and recorder for scoring later.
Male Sprague-Dawley rats (Taconic Farms, NY) were used in all experiments. Rats were housed in pairs and maintained on a 12:12-h light-dark cycle. Rats were handled for 5 minutes each day for 5 days prior to behavioral testing.
The rat's behavior was rated at 5 second intervals during the 5 minute test as one of the following: • 1. Immobility- rat remained floating in the water without struggling and was only making those movements necessary to keep its head above water; • 2. Climbing - rat was making active movements with its forepaws in and out of the water, usually directed against the walls; • 3. Swimming - rat was making active swimming motions, more than necessary to merely maintain its head above water, e.g. moving around in the cylinder; and • 4. Diving - entire body of the rat was submerged.
All of the behavior scoring was done by a single rater, who was blind to the treatment condition. The rater was also present in the room throughout the entire test period.
All injections were given using 1 cc tuberculin syringe with 26 3/8 gauge needles (Becton-Dickinson, VWR Scientific, Bridgeport, NJ). The volume of injection was 1 ml/kg.
The drugs were dissolved in 100% N,N-dimethylacetamide. All administrations were given using 1 cc tuberculin syringes, to which a 3 inch, curved, stainless steel gavage needle was attached. The volume of administration was 1 ml/kg.
The compounds were dissolved in 100% N,N-dimethylacetamide. All administrations were given using 1 cc tuberculin syringes, to which a 3 inch, curved, stainless steel gavage needle was attached. The volume of administration was 1 ml/kg.
The forced swim test data (immobility, swimming, climbing, diving) were subjected to a randomized, one-way ANOVA and post hoc tests conducted using the Student-Newman-heuls test. The data were analyzed using the GBSTAT program, version 6.5 (Dynamics Microsystems, Inc., Silver Spring, MD, 1997). All data are presented as means ± S.E.M.

In assay [1] the target is NE transporter (Rattus norvegicus, UniProt Q63380). As to the kind of experiment: Binding at native NE transporter. To be noted: Table 7; native transporter, head prints r (rat); read-out: rNE Uptk Ki. The procedure:
(§1) The binding properties of the compounds of the present invention were evaluated at one or more cloned receptors or native, tissue-derived transporters, using protocols described below.
(§2) The methods to determine binding affinity at native transporters are described in the following publications: 5HT transporter and NE transporter (Owens et al., 1997), and DA transporter (Javitch et al, 1984).
(§3) Binding data were analyzed using nonlinear regression and statistical techniques available in the GraphPAD Prism package (San Diego, CA). Enzymatic assay data were derived from a standard curve of reference compound data.

Assay [2] concerns NE transporter. As to the kind of experiment: Binding at native NE transporter. To be noted: Table 8; Ki rNE Uptk divided by Ki hGAL3. As for the experimental part: as §1, §2, §3

For orientation: Ki means a dissociation constant, usually derived from enzyme kinetics or from competition with a known ligand.

NE transporter (Rattus norvegicus, UniProt Q63380), sequence (Q63380 1-617): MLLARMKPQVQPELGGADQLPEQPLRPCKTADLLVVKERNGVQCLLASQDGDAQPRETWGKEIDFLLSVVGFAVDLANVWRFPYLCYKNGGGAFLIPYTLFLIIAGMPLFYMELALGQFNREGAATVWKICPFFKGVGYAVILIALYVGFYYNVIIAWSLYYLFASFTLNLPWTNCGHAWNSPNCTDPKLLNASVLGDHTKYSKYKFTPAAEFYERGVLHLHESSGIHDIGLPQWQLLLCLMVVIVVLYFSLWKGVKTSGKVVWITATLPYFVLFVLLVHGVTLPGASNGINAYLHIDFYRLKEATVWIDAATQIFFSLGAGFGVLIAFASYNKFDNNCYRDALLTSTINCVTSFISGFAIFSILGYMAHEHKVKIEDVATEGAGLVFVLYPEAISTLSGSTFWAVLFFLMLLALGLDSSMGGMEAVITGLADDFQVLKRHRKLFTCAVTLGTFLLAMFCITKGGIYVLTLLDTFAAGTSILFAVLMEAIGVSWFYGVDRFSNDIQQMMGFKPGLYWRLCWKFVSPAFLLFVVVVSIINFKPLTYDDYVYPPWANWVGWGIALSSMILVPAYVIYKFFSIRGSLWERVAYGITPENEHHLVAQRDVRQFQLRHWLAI

Consider `O=C1C(=Nc2ccc(C(F)(F)F)cc2)c2ccccc2N1c1ccccc1` [Example 95, 1-PHENYL-3-[[4-(TRIFLUOROMETHYL)PHENYL]IMINO]-1,3-DIHYDRO-2H-INDOL-2-ONE], for which the Ki on human GAL1 receptor was more than 10 µM. In the assay with Male Sprague-Dawley rats (3 mg/kg p.o.), this compound yielded a Climbing of 2.6 ± 0.8, a Diving of 0.0 ± 0.0, an Immobility of 40 ± 3.3 and a Swimming of 17.1 ± 2.5. Further, in the assay on Male Sprague-Dawley rats (10 mg/kg p.o.), the Climbing turned out to be 1.3 ± 0.5, the Diving was found to be 0.1 ± 0.1, the Immobility is 52 ± 1.2^a and the Swimming is recorded as 6.9 ± 0.9^b. Moreover, in the assay with Male Sprague-Dawley rats (30 mg/kg p.o.), the Climbing was determined as 1.0 ± 0.3, the Diving was 0.0 ± 0.0, the Immobility is 54 ± 0.9^a and the Swimming is listed as 4.8 ± 0.7^b. Also, the “antidepressant profile in the FST (conclusion)” value in the assay on Male Sprague-Dawley rats was “does not produce antidepressant-like actions”. For the same compound, at NE transporter [1], the inhibitory constant (Ki) turned out to be 6.1 µM. In the assay with NE transporter [2], the “selectivity ratio rNE Uptk” value is recorded as more than 100.
Regarding `O=C1C(=Nc2ccc(Br)cc2)c2ccccc2N1c1ccccc1` [Example 98, 3-[(4-BROMOPHENYL)IMINO]-1-PHENYL-1,3-DIHYDRO-2H-INDOL-2-ONE], the Ki on human GAL1 receptor was more than 10 µM. For the same compound, in the assay on Male Sprague-Dawley rats (3 mg/kg p.o.), the Climbing is given as 4.3 ± 0.9^b, the Diving was 0.1 ± 0.1, the Immobility is 35 ± 2.6^a and the Swimming was 20.4 ± 1.9^c. In addition, in the assay with Male Sprague-Dawley rats (10 mg/kg p.o.), the Climbing is listed as 2.4 ± 0.3, the Diving is 0.8 ± 0.4, the Immobility is given as 39 ± 1.1^a and the Swimming is 17.6 ± 1.0^c. In addition, in the assay on Male Sprague-Dawley rats (30 mg/kg p.o.), the Climbing turned out to be 2.0 ± 0.3, the Diving came to 0.2 ± 0.2, the Immobility was 38 ± 2.3^a and the Swimming was 20.3 ± 2.1^c. Also, the “antidepressant profile in the FST (conclusion)” value in the assay on Male Sprague-Dawley rats was “resembling that of the clinically established antidepressant fluoxetine”. The Ki on NE transporter [1] turned out to be 5.5 µM. Moreover, the “selectivity ratio rNE Uptk” value with NE transporter [2] is more than 100.
